# Experimental data: patent US20190038711A1, “Medicament For Treating Pulmonary Tuberculosis” (Shandong Zhonghai Pharmaceutical CO. LTD, priority 2016, published 2019)
# System: airway hyperresponsiveness
# Assay: Experiment on airway hyperresponsiveness (late-phase airway response, APTI)
# Format: in vivo
# Settings: sensitized mice, acetylcholine 50 μg/kg i.v.; medicament 1 g three times a day intragastric for 17 days; dexamethasone 0.5 ml/kg i.p. daily
# Method: According to the Above Embodiments 13-18, an Experiment on Airway Hyperresponsiveness was Conducted, with an Experimental Method and Effects being Shown Below:
# (1) mice for the experiment: the male mice for this experiment were 6 weeks old;
# (2) dose: the dose for each mouse was 3 g/day, 3 times a day;
# (3) antigen sensitization, allergy attack and treatment: 200 μg of conalbumin (CA) and 2 mg of dinitrobenzene (DNP)-bound albumin were dissolved in 0.3 ml of buffer solution PBS and then […] injected into mice for sensitization twice at an interval of one week. The mice were anesthetized 7 days later after the second sensitization, and were intratracheally provided with 0.05 ml of buffer solution PBS containing 100 μg of conalbumin (CA) to induce an allergy attack. On the 20th day and the 30th day, a further allergy attack was induced by the same method at twice dose. The mice having an allergy attack were divided into 9 groups 24 hours later after the first allergy attack. […]
# (4) measurement of late-phase airway response: on the third day after the last allergy attack, the mice of the above 8 groups were intravenously injected with acetylcholine, and then the airway pressure changes of these mice and those of group 9 were all measured to reflect airway responses. […]
smiles,measurement,value
C[C@@H]1C[C@H]2[C@@H]3CCC4=CC(=O)C=C[C@]4(C)[C@@]3(F)[C@@H](O)C[C@]2(C)[C@@]1(O)C(=O)CO [dexamethasone],APTI (airway pressure-time index),565 ± 31 centimeter water column per second
